Data published in patent US6410249B1, “Odorant receptors” (priority 1999, dated 2002).
Where two headings read alike, the source gives them in different places.

How the values were obtained:
[1] = test system: goldfish olfactory neurons; test: multi-unit recordings from the goldfish olfactory epithelium; type: cell-based; details: 0.1 μM
receptor 5.24 [2] = biological target: T1, receptor 5.24 (Carassius auratus, UniProt Q9PW88); test: biochemical; type: binding
T1 construct: The receptor 5.24 full length cDNA detects 1-2 bands in genomic DNA blots; expressed in transfected cells; host or cells: HEK 293 cells expressing SV40 large T antigen (293-TSA)
T1 sequence (Q9PW88 25-877): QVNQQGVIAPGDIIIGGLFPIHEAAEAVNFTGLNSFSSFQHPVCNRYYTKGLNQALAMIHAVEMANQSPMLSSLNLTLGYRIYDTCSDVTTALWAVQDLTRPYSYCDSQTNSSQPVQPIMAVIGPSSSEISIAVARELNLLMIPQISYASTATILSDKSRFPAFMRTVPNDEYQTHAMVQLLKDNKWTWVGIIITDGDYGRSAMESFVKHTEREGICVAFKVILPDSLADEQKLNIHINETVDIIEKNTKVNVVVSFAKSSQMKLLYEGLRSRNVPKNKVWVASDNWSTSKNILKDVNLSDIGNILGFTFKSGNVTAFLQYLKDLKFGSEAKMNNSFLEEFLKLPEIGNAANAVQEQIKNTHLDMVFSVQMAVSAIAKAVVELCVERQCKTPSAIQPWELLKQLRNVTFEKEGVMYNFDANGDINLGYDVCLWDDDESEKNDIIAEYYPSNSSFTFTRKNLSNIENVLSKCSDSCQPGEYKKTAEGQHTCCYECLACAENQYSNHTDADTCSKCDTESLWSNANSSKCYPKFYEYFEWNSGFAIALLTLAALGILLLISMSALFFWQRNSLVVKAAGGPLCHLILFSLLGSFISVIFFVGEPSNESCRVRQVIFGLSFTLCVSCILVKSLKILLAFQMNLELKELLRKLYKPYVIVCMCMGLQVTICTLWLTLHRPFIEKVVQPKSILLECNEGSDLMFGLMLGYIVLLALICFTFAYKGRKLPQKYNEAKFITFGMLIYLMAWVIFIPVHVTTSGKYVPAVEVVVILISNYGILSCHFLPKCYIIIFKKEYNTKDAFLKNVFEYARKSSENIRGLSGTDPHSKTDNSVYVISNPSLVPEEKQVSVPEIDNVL
Experimental: Structure-Activity Properties of Compounds Interacting with the Cloned Goldfish Amino Acid Odorant Receptor. An understanding of how odorant receptors are used to encode olfactory information requires a characterization of the odorant specificities of individual receptor types. We therefore wished to determine the relative specificity of receptor 5.24 for structurally related ligands. […] Briefly, 3H-arginine binding to membranes from receptor 5.24-expressing HEK 293 cells was assayed in the absence or presence of varying concentrations of competitor ligands.
(§1) Mammalian Cell Culture and DNA Transfections. For cell transfections, the receptor 5.24 cDNA insert was subcloned into two expression vectors: CMVI, which utilizes a human cytomegalovirus (CMV) immediate early promoter-enhancer plus the CMV intron A sequence to drive expression, and 608RX-2.2L, which is similar to CMVI except the cDNA insert is followed by an internal ribosome entry site (IRES)—enhanced green fluorescent protein (EGFP) coding sequence; 608RX-2.2L also contains a puromycin resistance gene. For transient assays, HEK 293 cells expressing the SV40 large T antigen (293 TSA cells) were transfected with the CMVI-receptor 5.24 or CMVI control plasmid using lipofectamine (Life Technologies) and harvested at 48 hours for membrane preparations. For stable cell lines, 293-TSA cells were transfected with the 608RX-2.2L-receptor 5.24 plasmid or a control 608RX-2.2L plasmid and selected in puromycin. Colonies showing high levels of EGFP fluorescence (as judged by epifluorescence microscopy) were picked, expanded, and screened for 3H-L-arginine binding (see below).
(§2) Membrane Preparations and Ligand Binding Assays. Membranes for ligand binding assays were prepared by washing confluent cells three times with phosphate buffered saline (PBS), detaching cells with a PBS-based enzyme-free dissociation solution, and resuspending cells in ice-cold 5.0 mM Hepes, pH 7.4, 1.0 mM EDTA, 1.0 μg/ml leupeptin, 0.5 mM PMSF. All subsequent manipulations were performed on ice. After a 30 min incubation, the cell suspension was homogenized and centrifuged at 100,000×g for 30 min. Cell membrane pellets were washed twice by resuspension and centrifugation in binding buffer (20 mM Hepes, pH 7.4, 1.0 mM EDTA, 2.0 mM MgCl2, 1.0 μg/ml leupeptin, 0.5 mM PMSF), resuspended in binding buffer, and frozen at −80° C.
Saturation binding assays were performed using 20-25 μg of membrane protein in a final volume of 100 μl binding buffer and increasing concentrations of [2,3-3H] L-arginine (specific activity=40 Ci/mmol; Dupont NEN). Non-specific binding was measured in the presence of 500 μM unlabeled L-arginine. Competition assays were performed with 500 nM [2,3-3H] L-arginine and increasing concentrations of competitor ligands. All incubations were performed at 4° C. for 60 min and terminated by rapid filtration through Whatman GF/C filters pretreated with ice cold 0.1% polyethyleneimine. Filters were washed three times with 4.0 ml ice cold 20 mM Hepes, pH 7.4, and retained radioactivity was measured by scintillation counting.

receptor 5.24 [3] = biological target: T1, receptor 5.24; test: evoked currents in Xenopus oocytes expressing receptor 5.24 (two-electrode voltage clamp); type: cell-based, goldfish
Text: Identification by Expression Cloning of a cDNA Encoding a Goldfish Odorant Receptor. RNA was synthesized from pools of goldfish olfactory cDNA clones (900 individual clones per pool) and injected into Xenopus oocytes together with synthetic RNAs encoding GIRK and Gaolf. Oocytes were then screened for responses upon exposure to odorant cocktails containing amino acids, bile acids, or sex pheromones. […] The response to amino acids was biphasic, beginning with an oscillating inward current above the basal inward K+ current, followed by a decline in inward current to below the basal level. Such a biphasic effect is thought to be caused by Gaq-mediated activation of phospholipase C (responsible for the intial inward current via IP3) and protein kinase C (leading to suppression of the K+ current through phosphorylation of GIRK channel subunits) (Sharon et al., 1997).
Iterative subdivision of pool 19 by sib-selection allowed the isolation of a single clone encoding a receptor, designated receptor 5.24.
Oocytes were removed from anesthetized Xenopus laevis and treated with collagenase. Forty nanograms of cRNA from each cDNA library pool (˜40 pg cRNA/clone) was injected per oocyte, together with cRNAs encoding Gaolf and the GIRK subunits Kir 3.1 and Kir 3.4 (˜30 pg each). Approximately 30 pools were assayed before these primary screens were halted. Injected oocytes were incubated at 17° C. for over 80 hours prior to electrophysiological recordings. Recordings were performed by two-electrode voltage clamping using an Axoclamp-2A amplifier (Axon Instruments) or a Dagan CA-1 amplifier (Dagan Corp.). Data acquisition and analysis were performed using pCLAMP software (Axon Instruments). Membrane potential was held at −80 mV. For trials involving GIRK, oocytes were first perfused with Na-MBSH (88 mM NaCl, 1 mM KCl, 2.4 mM NaHCO3, 10 mM Hepes, pH 7.5, 0.82 mM MgSO4[7H2O], 0.33 mM Ca[NO3]2[4H2O], 0.41 mM CaCl2[2H2O]), and then switched into K-MBSH, which contains elevated K+ (88 mM KCl, 1 mM NaCl) until the basal current had stabilized (˜45 seconds) before challenging with agonist. Recordings on oocytes injected with receptor 5.24 in the absence of Gaolf and/or GIRK subunits were performed in Na-MBSH. Oocytes were exposed to solutions containing different agonists by switching bathing solutions with an 8 channel valve (Hamilton).

salmon olfactory neurons = details: 0.01-10 μM, isolated salmon olfactory neurons; cited from earlier work
receptor 5.24 [4] = biological target: T1, receptor 5.24; test: 3H-L-arginine saturation binding to membranes of receptor 5.24-expressing HEK 293 cells; design: species or system goldfish; details: summary statement; read-out: Kd (high affinity interaction)
Text: High-Affinity Binding of Radiolabeled L-Arginine to the Cloned Goldfish Odorant Receptor. To determine the affinity of the cloned goldfish amino acid receptor for basic amino acids, we characterized the ligand-receptor interaction by radiolabeled ligand binding to receptors expressed in mammalian cells. Human embryonic kidney (HEK) 293 cells were transfected with expression plasmids containing the receptor 5.24 cDNA insert. […] We next wished to determine what second messenger pathway receptor 5.24 couples to in HEK 293 cells. Control cells or cells expressing receptor 5.24 were exposed to varying concentrations of arginine and assayed for the accumulation of IP3 and cAMP.
as §1, with “below). In five independent receptor 5.24-transfected stable cell lines, receptor densities (Rt) varied between 0.5 and 6.0 pmol L-arginine binding sites/mg membrane protein. […] All competition binding assays and signal transduction studies were performed using the stable cell line 5.24-20 (Rt=2.0 pmol /mg) and a control cell line (2.2-9) stably transfected with vector alone (Rt=0.03 pmol/mg).” for “below).”
as §2
Saturation binding assays were performed using 20-25 μg of membrane protein in a final volume of 100 μl binding buffer and increasing concentrations of [2,3-3H] L-arginine (specific activity=40 Ci/mmol; Dupont NEN). Non-specific binding was measured in the presence of 500 μM unlabeled L-arginine. Competition assays were performed with 500 nM [2,3-3H] […] Filters were washed three times with 4.0 ml ice cold 20 mM Hepes, pH 7.4, and retained radioactivity was measured by scintillation counting. […] Data were analyzed by nonlinear curve fitting using Origin software (Microcal). […]

CCCCCC(=O)/C=C/[C@@H]1[C@@H](C/C=C\CCCC(=O)O)[C@@H](O)C[C@H]1O [1 5-ketoprostaglandin F2a]
locations that responded [1]: 25 out of 65

N[C@@H](CO)C(=O)O [L-Serine]
Ki (receptor 5.24 [2]; displacement of 3H-L-arginine from membranes of HEK 293 cells expressing receptor 5.24, read-out: Ki (binding affinity)): 2800 nM
activation of receptor 5.24 (evoked currents), in words (receptor 5.24 [3]): smaller responses
fraction of cells sensitive (salmon olfactory neurons): ~60%

NCCCC[C@H](N)C(=O)O [L-Lysine]
Ki (receptor 5.24 [2]): 90 nM
binding to receptor 5.24, in words (receptor 5.24 [2]; comparative binding studies): highest affinities
Kd (receptor 5.24 [4]): ~100 nM
